In US20080171095A1, “Carnosine-related compounds for preventing and treating impaired neurovascular blood flow” (Michigan State University, priority 2005, published 2008):

Tested on: Male C57BL/6J mice, permanent occlusion of the middle cerebral artery (focal ischemia)
Assay: Focal ischemia in mice: permanent occlusion of the middle cerebral artery, infarct volume by 2,3,5-triphenyl-tetrazolium chloride staining
Type: in vivo
Details: assessed 24 hours after occlusion; for Reduction of infarct volume versus saline-injected control mice: 30 minutes before artery occlusion (FIG. 1)
Method: Male C57BL/6J mice were subjected to a permanent occlusion of the middle cerebral artery. For prophylactic studies, carnosine (100 mg/kg or 500 mg/kg, I.P.) was administered thirty (30) minutes (FIG. 1) or sixty (60) minutes (FIG. 2) before artery occlusion. For treatment studies, carnosine (1000 mg/kg, I.P.) was administered sixty (60) minutes after artery occlusion (FIG. 2).
Damage to the neural tissue (i.e., infarct volume) was assessed twenty-four (24) hours after occlusion by 2,3,5-triphenyl-tetrazolium chloride staining. Infarct volumes were reduced by 49% and 65% in mice prophylactically given 100 mg/kg and 500 mg/kg carnosine, respectively, versus saline-injected control mice. (FIG. 1) This protective dose dependence was reproduced in a second experiment that compared a post-occlusion carnosine administration. In this experiment, infarct volumes were reduced by 40% and 52%, respectively in mice prophylactically given 100 mg/kg and 500 mg/kg carnosine. A 40% reduction in infarct volume was also observed when mice were administered 1000 mg/kg carnosine after the occlusion.

`NCCC(=O)N[C@@H](Cc1c[nH]cn1)C(=O)O` [carnosine, β-alanyl-L-histidine] was tested, and the “Reduction of infarct volume versus saline-injected control mice” value (100 mg/kg I.P., prophylactic) was 49%, the “Reduction of infarct volume versus saline-injected control mice” value (500 mg/kg I.P., prophylactic) was 65% and the “Reduction of infarct volume” value (second experiment (FIG. 2): 100 mg/kg I.P., prophylactic, 60 minutes before artery occlusion) was 40%. The “Reduction of infarct volume” value (second experiment (FIG. 2): 500 mg/kg I.P., prophylactic, 60 minutes before artery occlusion) was 52% and the “Reduction of infarct volume” value (second experiment (FIG. 2): 1000 mg/kg I.P., treatment, 60 minutes after artery occlusion) was 40%.
